Reference: US12606561B2, “Substituted pyrazolo[1,5-a][1,3,5]triazines as CDK inhibitors” (QURIENT CO., LTD., priority 2018, dated 2026)

How the values were obtained:
[1] = system: A2780; experiment: A2780 viability assay (CellTiter-Glo, 72 hours); assay type: cell-based; conditions: Homo sapiens; A2780 cells
Summary of the method: (§1)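 CellTiter-Glo luminescence measured viability after 72 h of compound exposure (0.0015–10 uM; DMSO below 0.1%) at 37 °C, 5% CO2, run in duplicate. Dosing began 24 h post-seeding in RPMI-1640/10% FBS at 1×10^4 (MV4-11), 5×10^3 (OVCAR-3) or 1×10^3 (A2780) cells/well.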

[2] = target: T1, CDK1/Cyclin B (Homo sapiens, UniProt P06493); experiment: Enzymatic assay for CDK1 (LANCE Ultra kinase assay, FRET based); assay type: biochemical; conditions: ATP at Km; read-out: CDK1 enzymatic activity IC50
T1 construct: purchased Invitrogen PR4768C
T1 sequence (P06493 whole entry): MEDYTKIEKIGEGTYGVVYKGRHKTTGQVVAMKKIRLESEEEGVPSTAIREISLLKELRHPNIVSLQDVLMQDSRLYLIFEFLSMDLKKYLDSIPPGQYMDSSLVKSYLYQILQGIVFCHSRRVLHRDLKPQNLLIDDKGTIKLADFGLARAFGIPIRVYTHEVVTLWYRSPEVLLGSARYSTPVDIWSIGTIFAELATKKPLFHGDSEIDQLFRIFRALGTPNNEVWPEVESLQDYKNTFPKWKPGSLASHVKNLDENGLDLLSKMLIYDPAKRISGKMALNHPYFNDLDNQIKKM
T1 sequence (P14635 whole entry partner): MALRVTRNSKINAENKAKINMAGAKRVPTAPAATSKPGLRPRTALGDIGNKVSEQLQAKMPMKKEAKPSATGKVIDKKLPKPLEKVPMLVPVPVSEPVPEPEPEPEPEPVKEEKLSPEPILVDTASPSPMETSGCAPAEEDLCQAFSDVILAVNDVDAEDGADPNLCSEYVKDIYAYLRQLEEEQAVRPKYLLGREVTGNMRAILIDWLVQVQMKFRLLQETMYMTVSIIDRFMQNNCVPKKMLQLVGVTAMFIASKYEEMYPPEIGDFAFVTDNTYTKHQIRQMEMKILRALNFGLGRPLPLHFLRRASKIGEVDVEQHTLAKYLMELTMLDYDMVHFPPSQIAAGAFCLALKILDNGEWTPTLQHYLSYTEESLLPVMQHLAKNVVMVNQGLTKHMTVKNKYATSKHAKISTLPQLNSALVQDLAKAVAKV
Summary of the method: (§2)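 Purified CDK7/Cyclin H/MNAT1 or CDK1/Cyclin B complexes were tested for inhibition at Km ATP. Phosphorylation of a ULight-labelled peptide was detected by FRET with a Europium anti-phospho antibody (LANCE Ultra).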

[3] = system: OVCAR-3; experiment: OVCAR-3 viability assay (CellTiter-Glo, 72 hours); assay type: cell-based; conditions: Homo sapiens; OVCAR-3 cells
Summary of the method: as §1

[4] = target: T2, CDK5/p25 (Homo sapiens, UniProt Q00535); experiment: Enzymatic assay for CDK5 (LANCE Ultra kinase assay, FRET based); assay type: biochemical; conditions: ATP at Km
T2 construct: purchased Invitrogen PR8543B
T2 sequence (Q00535 whole entry): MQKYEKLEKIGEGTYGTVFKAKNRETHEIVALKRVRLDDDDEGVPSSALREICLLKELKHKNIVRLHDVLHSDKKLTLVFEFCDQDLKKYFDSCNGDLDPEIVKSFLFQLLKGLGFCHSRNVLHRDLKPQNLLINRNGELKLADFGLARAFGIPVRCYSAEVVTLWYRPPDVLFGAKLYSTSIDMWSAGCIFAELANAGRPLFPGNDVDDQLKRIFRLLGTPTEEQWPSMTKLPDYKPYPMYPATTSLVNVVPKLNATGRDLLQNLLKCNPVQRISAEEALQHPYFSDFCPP
T2 sequence (Q15078 99-307 partner limits assumed): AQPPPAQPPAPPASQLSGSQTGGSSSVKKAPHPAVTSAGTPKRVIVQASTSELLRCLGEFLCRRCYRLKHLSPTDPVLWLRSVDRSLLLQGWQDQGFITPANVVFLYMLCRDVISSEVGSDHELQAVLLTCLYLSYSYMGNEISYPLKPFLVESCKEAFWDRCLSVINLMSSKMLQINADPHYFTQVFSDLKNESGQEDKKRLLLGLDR
Summary of the method: (§3)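 TR-FRET kinase assay at ATP Km with ULight-MBP peptide (68 nM) and Eu-anti-phospho-MBP antibody; CDK2/Cyclin A at […], CDK5/p25 at […]. 8-dose 4-fold compound dilutions; 60 min kinase reaction at 23° C., EDTA stop, 60 min detection, read at 615/665 nm.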

[5] = target: T3, CDK2/Cyclin A (Homo sapiens, UniProt P24941); experiment: Enzymatic assay for CDK2 (LANCE Ultra kinase assay, FRET based); assay type: biochemical; conditions: ATP at Km
T3 construct: purchased Invitrogen PV6290
Summary of the method: as §3

[6] = target: T4, CDK7/Cyclin H/MNAT1 (Homo sapiens, UniProt P50613); experiment: Enzymatic assay for CDK7 (LANCE Ultra kinase assay, FRET based); assay type: biochemical; conditions: for IC50: ATP at Km
T4 construct: purchased Invitrogen PR6749B
T4 sequence (P50613 whole entry): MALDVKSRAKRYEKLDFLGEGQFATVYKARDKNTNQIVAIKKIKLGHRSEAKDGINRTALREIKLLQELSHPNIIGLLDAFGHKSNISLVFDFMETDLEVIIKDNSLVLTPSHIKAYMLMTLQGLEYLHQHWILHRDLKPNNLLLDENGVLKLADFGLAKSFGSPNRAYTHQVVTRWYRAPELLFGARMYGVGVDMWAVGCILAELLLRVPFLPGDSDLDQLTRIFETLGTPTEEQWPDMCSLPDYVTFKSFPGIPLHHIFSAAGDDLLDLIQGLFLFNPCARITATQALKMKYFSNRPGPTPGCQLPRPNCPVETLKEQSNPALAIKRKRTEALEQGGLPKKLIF
T4 sequence (P51946 whole entry partner): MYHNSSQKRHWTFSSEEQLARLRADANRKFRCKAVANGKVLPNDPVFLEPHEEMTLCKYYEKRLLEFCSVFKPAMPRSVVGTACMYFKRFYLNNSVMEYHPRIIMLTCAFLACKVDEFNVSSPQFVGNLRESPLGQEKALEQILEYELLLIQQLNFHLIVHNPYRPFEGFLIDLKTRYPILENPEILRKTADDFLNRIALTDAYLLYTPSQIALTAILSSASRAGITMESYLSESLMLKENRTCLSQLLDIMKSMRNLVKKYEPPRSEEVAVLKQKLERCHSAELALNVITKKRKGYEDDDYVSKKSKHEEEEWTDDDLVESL
T4 sequence (P51948 whole entry partner): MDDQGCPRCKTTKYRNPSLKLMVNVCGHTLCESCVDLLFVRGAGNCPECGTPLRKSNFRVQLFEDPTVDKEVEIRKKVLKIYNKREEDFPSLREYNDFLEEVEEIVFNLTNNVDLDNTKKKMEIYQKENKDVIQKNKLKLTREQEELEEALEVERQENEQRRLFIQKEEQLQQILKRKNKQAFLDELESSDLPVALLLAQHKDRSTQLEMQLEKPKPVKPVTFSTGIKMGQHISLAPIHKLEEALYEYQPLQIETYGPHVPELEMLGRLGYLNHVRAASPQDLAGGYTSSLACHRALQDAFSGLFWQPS
Summary of the method: as §2

Compound | IC50 [1] [µM] | IC50 [2] [µM] | IC50 [3] [µM] | IC50 [4] [µM] | IC50 [5] [µM] | IC50 [6] [µM] | CDK1/CDK7: Selectivity of CDK7 inhibition over CDK1 inhibition [6] | CDK2/CDK7: Selectivity of CDK7 inhibition over CDK2 inhibition [6] | CDK5/CDK7: Selectivity of CDK7 inhibition over CDK5 inhibition [6]
C=C(F)C(=O)Nc1ccc2c(-c3ccccc3CNc3nc(N4CCC(OC(F)(F)F)CC4)nc4c(C(C)C)cnn34)nccc2c1 [Compound 86] | 1 to 10 | > 1 | < 1 | > 1 | > 1 | > 1 | C (C indicates [fold] ≤ 50) | C (C indicates [fold] ≤ 50) | C (C indicates [fold] ≤ 50)
CC(C)c1cnn2c(NCc3ccccc3-c3nccc4cc(NC(=O)/C=C/CN(C)C)ccc34)nc(NC3CC4CCC(C3)N4C)nc12 (stereo not drawn) [Compound 130] | < 1 | > 1 | 1 to 10 | > 1 | > 1 | < 0.1 | A (A indicates [fold] > 500) | A (A indicates [fold] > 500) | A (A indicates [fold] > 500)
C=C(F)C(=O)Nc1ccc2c(-c3ccccc3CNc3nc(NC[C@H]4CCNC[C@H]4O)nc4c(C(C)C)cnn34)nccc2c1 [Compound 158] | < 1 | > 1 | < 1 | > 1 | > 1 | < 0.1 | A (A indicates [fold] > 500) | A (A indicates [fold] > 500) | A (A indicates [fold] > 500)
CC(C)c1cnn2c(NCc3ccccc3-c3nccc4cc(NC(=O)/C=C/CN(C)C)ccc34)nc(N3CC4COCC4C3)nc12 (stereo not drawn) [Compound 104] | < 1 | > 1 | < 1 | > 1 | > 1 | 0.1 to 1 | B (B indicates 50 < [fold] ≤ 500) | B (B indicates 50 < [fold] ≤ 500) | B (B indicates 50 < [fold] ≤ 500)
C=CC(=O)Nc1ccc2c(-c3ccccc3CNc3cc(N4CCC5(CC4)OCCO5)nc4c(C(C)C)cnn34)nccc2c1 [Compound 118] | < 1 | > 1 | < 1 | > 1 | > 1 | < 0.1 | A (A indicates [fold] > 500) | A (A indicates [fold] > 500) | A (A indicates [fold] > 500)
C=C(F)C(=O)Nc1ccc2c(-c3ccccc3CNc3nc(O[C@H]4CCCNC4)nc4c(C(C)C)cnn34)nccc2c1 [Compound 159] | < 1 | > 1 | 1 to 10 | > 1 | > 1 | 0.1 to 1 | B (B indicates 50 < [fold] ≤ 500) | B (B indicates 50 < [fold] ≤ 500) | B (B indicates 50 < [fold] ≤ 500)
C=C(F)C(=O)Nc1ccc2c(-c3ccccc3CNc3cc(N4CCC(OC)CC4)nc4c(C(C)C)cnn34)nccc2c1 [Compound 91] | < 1 | > 1 | < 1 | > 1 | > 1 | 0.1 to 1 | B (B indicates 50 < [fold] ≤ 500) | B (B indicates 50 < [fold] ≤ 500) | B (B indicates 50 < [fold] ≤ 500)
CC(C)c1cnn2c(NCc3ccccc3-c3nccc4cc(NC(=O)/C=C/CN(C)C)ccc34)nc(N[C@@H]3CCCNC3)nc12 [Compound 150] | < 1 | > 1 | < 1 | > 1 | > 1 | < 0.1 | A (A indicates [fold] > 500) | A (A indicates [fold] > 500) | A (A indicates [fold] > 500)
C=C(F)C(=O)Nc1ccc2c(-c3ccccc3CNc3nc(N4CCC(F)CC4)nc4c(C(C)C)cnn34)nccc2c1 [Compound 90] | < 1 | > 1 | < 1 | > 1 | > 1 | 0.1 to 1 | B (B indicates 50 < [fold] ≤ 500) | B (B indicates 50 < [fold] ≤ 500) | B (B indicates 50 < [fold] ≤ 500)
CC(C)c1cnn2c(NCc3ccccc3-c3nccc4cc(NC(=O)/C=C/CN(C)C)ccc34)nc(N3CCC4(CCN(C)CC4)CC3)nc12 [Compound 128] | < 1 | > 1 | < 1 | > 1 | > 1 | < 0.1 | A (A indicates [fold] > 500) | A (A indicates [fold] > 500) | A (A indicates [fold] > 500)
C=C(F)C(=O)Nc1cccc2ccc(-c3cccc(C)c3CNc3nc(N4CCC(OC)CC4)nc4c(C(C)C)cnn34)nc12 [Compound 93] | < 1 | > 1 | 1 to 10 | > 1 | > 1 | > 1 | C (C indicates [fold] ≤ 50) | C (C indicates [fold] ≤ 50) | C (C indicates [fold] ≤ 50)
CC(C)c1cnn2c(NCc3ccccc3-c3nccc4cc(NC(=O)/C=C/CN(C)C)ccc34)nc(NC[C@H]3CNC[C@@H]3O)nc12 [Compound 109] | 1 to 10 | > 1 | 1 to 10 | > 1 | > 1 | < 0.1 | A (A indicates [fold] > 500) | A (A indicates [fold] > 500) | A (A indicates [fold] > 500)
CC(C)c1cnn2c(NCc3ccccc3-c3nccc4cc(NC(=O)/C=C/CN5CCOCC5)ccc34)nc(NC3CCC(C)(C)NC3)nc12 (stereo not drawn) [Compound 180] | < 1 | > 1 | < 1 | > 1 | > 1 | < 0.1 | A (A indicates [fold] > 500) | A (A indicates [fold] > 500) | A (A indicates [fold] > 500)
CC(C)c1cnn2c(NCc3ccccc3-c3nccc4cc(NC(=O)/C=C/CN(C)C)ccc34)nc(N3CCC(C#N)CC3)nc12 [Compound 105] | < 1 | > 1 | < 1 | > 1 | > 1 | 0.1 to 1 | B (B indicates 50 < [fold] ≤ 500) | B (B indicates 50 < [fold] ≤ 500) | B (B indicates 50 < [fold] ≤ 500)
CC(C)c1cnn2c(NCc3ccccc3-c3nccc4cc(NC(=O)/C=C/CN(C)C)ccc34)nc(N3C[C@H]4CC[C@@H](C3)O4)nc12 [Compound 102] | < 1 | > 1 | < 1 | > 1 | > 1 | 0.1 to 1 | B (B indicates 50 < [fold] ≤ 500) | B (B indicates 50 < [fold] ≤ 500) | B (B indicates 50 < [fold] ≤ 500)
C=C(F)C(=O)Nc1ccc2c(-c3ccccc3CNc3nc(N4CO[C@H]5CN(C)CC[C@@H]5C4)nc4c(C(C)C)cnn34)nccc2c1 [Compound 165] | < 1 | > 1 | < 1 | > 1 | > 1 | 0.1 to 1 | B (B indicates 50 < [fold] ≤ 500) | B (B indicates 50 < [fold] ≤ 500) | B (B indicates 50 < [fold] ≤ 500)
CC(C)c1cnn2c(NCc3ccccc3-c3nccc4cc(NC(=O)/C=C/CN(C)C)ccc34)nc(NCC3CCN(C)CC3)nc12 [Compound 133] | < 1 | > 1 | < 1 | > 1 | > 1 | < 0.1 | A (A indicates [fold] > 500) | A (A indicates [fold] > 500) | A (A indicates [fold] > 500)
